{
  "source": "EPA's ToxRefDB 2",
  "key": {"mouse [1]": {"system": "mouse", "conditions": "Sub-acute repeat dose toxicity, b6c3f1, Oral, Gavage/Intubation, dose end: 16 day, group: systemic"}, "rat [2]": {"system": "rat", "conditions": "Subchronic oral toxicity in rodents, fischer, Gavage/Intubation, dose end: 13 week, group: systemic, systemic / in life observation / clinical signs / lethargy + systemic / in life observation / mortality / mortality"}, "mouse [3]": {"system": "mouse", "conditions": "Subchronic oral toxicity in rodents, b6c3f1, Gavage/Intubation, dose end: 13 week, group: systemic"}, "rat [4]": {"system": "rat", "conditions": "Carcinogenicity, fischer, Oral, Gavage/Intubation, dose end: 103 week, group: systemic"}, "rat [5]": {"system": "rat", "conditions": "Sub-acute repeat dose toxicity, fischer, Oral, Gavage/Intubation, dose end: 16 day, group: systemic"}, "mouse [6]": {"system": "mouse", "conditions": "Carcinogenicity; b6c3f1; Oral; Gavage/Intubation; dose end: 103 week; group: systemic; systemic / pathology microscopic / kidney / inflammation + systemic / pathology microscopic / liver / cytomegaly + systemic / pathology …"}, "rabbit [7]": {"system": "rabbit", "conditions": "Prenatal developmental toxicity study, new zealand white, Oral, Gavage/Intubation, dose end: 18 GD"}, "rat [8]": {"system": "rat", "conditions": "Subchronic dermal toxicity, sprague dawley, Topical, dose end: 91 day, group: systemic"}, "rat [9]": {"system": "rat", "conditions": "Prenatal developmental toxicity study, sprague dawley, Oral, Gavage/Intubation, dose end: 15 GD"}, "rat [10]": {"system": "rat", "conditions": "Sub-acute dermal toxicity, sprague dawley, Topical, dose end: 21 day, group: systemic"}, "rabbit [11]": {"system": "rabbit", "conditions": "Prenatal developmental toxicity study, new zealand white, Oral, Gavage/Intubation, dose end: 18 GD", "remark": "listed apart in the source"}, "rat [12]": {"system": "rat", "conditions": "Prenatal developmental toxicity study, sprague dawley, Oral, Gavage/Intubation, dose end: 15 GD", "remark": "listed apart in the source"}, "[13]": {"conditions": "systemic / in life observation / body weight / body weight"}, "[14]": {"conditions": "systemic / in life observation / body weight / body weight + systemic / in life observation / clinical signs / abnormal movements + systemic…"}, "[15]": {"conditions": "systemic / in life observation / mortality / mortality"}, "[16]": {"conditions": "systemic / in life observation / mortality / mortality + systemic / in life observation / body weight / body weight"}, "[17]": {"conditions": "systemic / pathology microscopic / kidney / hyperplasia + systemic / pathology microscopic / kidney / mineralization"}, "[18]": {"conditions": "systemic / pathology microscopic / kidney / hyperplasia + systemic / pathology microscopic / kidney / mineralization + systemic / pathology …"}, "[19]": {"conditions": "systemic / in life observation / clinical signs / lethargy"}, "[20]": {"conditions": "group: developmental, developmental / developmental malformation / bone / misaligned + systemic / in life observation / body weight / fetal weight + developmental…"}, "[21]": {"conditions": "group: maternal, reproductive / reproductive performance / aborted / aborted + reproductive / reproductive performance / postimplantation loss / …"}, "[22]": {"conditions": "systemic / pathology microscopic / skin / acanthosis + systemic / hematology / blood clotting / blood clotting - prothrombin time + systemic…"}, "[23]": {"conditions": "group: developmental, systemic / in life observation / body weight / fetal weight"}, "[24]": {"conditions": "group: maternal, systemic / in life observation / body weight / body weight + systemic / in life observation / body weight / body weight gain + systemic / in…"}, "[25]": {"conditions": "systemic / in life observation / body weight / body weight gain + systemic / in life observation / clinical signs / desquamation + systemic…"}, "[26]": {"conditions": "systemic / pathology gross / skin / scabbing"}, "[27]": {"conditions": "group: maternal, reproductive / reproductive performance / resorptions / resorptions"}, "[28]": {"conditions": "group: maternal, systemic / in life observation / body weight / body weight gain"}},
  "data": [
    {"smiles": "CC1=CC(=O)CC(C)(C)C1", "note": "[Isophorone]", "values": [
      {"measurement": "LEL", "setting": "mouse [1]; [13]", "value": 250, "unit": "mg/kg/day"},
      {"measurement": "LOAEL", "setting": "mouse [1]; [13]", "value": 250, "unit": "mg/kg/day"},
      {"measurement": "NEL", "setting": "mouse [1]; [14]", "value": 125, "unit": "mg/kg/day"},
      {"measurement": "NOAEL", "setting": "mouse [1]; [14]", "value": 125, "unit": "mg/kg/day"},
      {"measurement": "LEL", "setting": "rat [2]", "value": 1000, "unit": "mg/kg/day"},
      {"measurement": "LOAEL", "setting": "rat [2]", "value": "> 1000", "unit": "mg/kg/day"},
      {"measurement": "NEL", "setting": "rat [2]", "value": 500, "unit": "mg/kg/day"},
      {"measurement": "NOAEL", "setting": "rat [2]", "value": "≥ 1000", "unit": "mg/kg/day"},
      {"measurement": "LEL", "setting": "mouse [3]; [15]", "value": 1000, "unit": "mg/kg/day"},
      {"measurement": "NEL", "setting": "mouse [3]; [15]", "value": 500, "unit": "mg/kg/day"},
      {"measurement": "LOAEL", "setting": "mouse [3]; [16]", "value": "> 1000", "unit": "mg/kg/day"},
      {"measurement": "NOAEL", "setting": "mouse [3]; [16]", "value": "≥ 1000", "unit": "mg/kg/day"},
      {"measurement": "LOAEL", "setting": "rat [4]; [17]", "value": 250, "unit": "mg/kg/day"},
      {"measurement": "NOAEL", "setting": "rat [4]; [17]", "value": "< 250", "unit": "mg/kg/day"},
      {"measurement": "LEL", "setting": "rat [4]; [18]", "value": 250, "unit": "mg/kg/day"},
      {"measurement": "NEL", "setting": "rat [4]; [18]", "value": "< 250", "unit": "mg/kg/day"},
      {"measurement": "LOAEL", "setting": "rat [5]; [13]", "value": 1000, "unit": "mg/kg/day"},
      {"measurement": "LEL", "setting": "rat [5]; [19]", "value": 125, "unit": "mg/kg/day"},
      {"measurement": "NEL", "setting": "rat [5]; [19]", "value": "< 125", "unit": "mg/kg/day"},
      {"measurement": "NOAEL", "setting": "rat [5]; systemic / in life observation / clinical signs / lethargy + systemic / in life observation / body weight / body weight + systemic / in life…", "value": 500, "unit": "mg/kg/day"},
      {"measurement": "LEL", "setting": "mouse [6]", "value": 250, "unit": "mg/kg/day"},
      {"measurement": "LOAEL", "setting": "mouse [6]", "value": 250, "unit": "mg/kg/day"},
      {"measurement": "NEL", "setting": "mouse [6]", "value": "< 250", "unit": "mg/kg/day"},
      {"measurement": "NOAEL", "setting": "mouse [6]", "value": "< 250", "unit": "mg/kg/day"}
    ]},
    {"smiles": "CN(C)C(=S)[S-].[K+]", "note": "[Potassium dimethyldithiocarbamate]", "values": [
      {"measurement": "LOAEL", "setting": "rabbit [7]; group: developmental, developmental / developmental malformation / bone / misaligned + systemic / in life observation / body weight / fetal weight", "value": 38, "unit": "mg/kg/day"},
      {"measurement": "LEL", "setting": "rabbit [7]; [20]", "value": 38, "unit": "mg/kg/day"},
      {"measurement": "NEL", "setting": "rabbit [7]; [20]", "value": 12.8, "unit": "mg/kg/day"},
      {"measurement": "NOAEL", "setting": "rabbit [7]; [20]", "value": 12.8, "unit": "mg/kg/day"},
      {"measurement": "LEL", "setting": "rabbit [7]; [21]", "value": 38, "unit": "mg/kg/day"},
      {"measurement": "LOAEL", "setting": "rabbit [7]; [21]", "value": 38, "unit": "mg/kg/day"},
      {"measurement": "NEL", "setting": "rabbit [7]; [21]", "value": 12.8, "unit": "mg/kg/day"},
      {"measurement": "NOAEL", "setting": "rabbit [7]; [21]", "value": 12.8, "unit": "mg/kg/day"},
      {"measurement": "LOAEL", "setting": "rat [8]; systemic / pathology gross / skin / scabbing + systemic / pathology microscopic / skin / acanthosis", "value": 350, "unit": "mg/kg/day"},
      {"measurement": "NOAEL", "setting": "rat [8]; systemic / pathology gross / skin / scabbing + systemic / pathology microscopic / skin / acanthosis + systemic / hematology / blood clotting…", "value": 75, "unit": "mg/kg/day"},
      {"measurement": "LEL", "setting": "rat [8]; [22]", "value": 75, "unit": "mg/kg/day"},
      {"measurement": "NEL", "setting": "rat [8]; [22]", "value": "< 75", "unit": "mg/kg/day"},
      {"measurement": "LEL", "setting": "rat [9]; [23]", "value": 400, "unit": "mg/kg/day"},
      {"measurement": "LOAEL", "setting": "rat [9]; [23]", "value": "> 400", "unit": "mg/kg/day"},
      {"measurement": "NEL", "setting": "rat [9]; [23]", "value": 150, "unit": "mg/kg/day"},
      {"measurement": "NOAEL", "setting": "rat [9]; [23]", "value": "≥ 400", "unit": "mg/kg/day"},
      {"measurement": "LEL", "setting": "rat [9]; [24]", "value": 150, "unit": "mg/kg/day"},
      {"measurement": "LOAEL", "setting": "rat [9]; [24]", "value": 150, "unit": "mg/kg/day"},
      {"measurement": "NEL", "setting": "rat [9]; [24]", "value": 25, "unit": "mg/kg/day"},
      {"measurement": "NOAEL", "setting": "rat [9]; [24]", "value": 25, "unit": "mg/kg/day"},
      {"measurement": "LOAEL", "setting": "rat [10]; [25]", "value": 750, "unit": "mg/kg/day"},
      {"measurement": "NOAEL", "setting": "rat [10]; [25]", "value": 500, "unit": "mg/kg/day"},
      {"measurement": "LEL", "setting": "rat [10]; [26]", "value": 100, "unit": "mg/kg/day"},
      {"measurement": "NEL", "setting": "rat [10]; [26]", "value": "< 100", "unit": "mg/kg/day"},
      {"measurement": "LEL", "setting": "rabbit [11]; [23]", "value": 50, "unit": "mg/kg/day"},
      {"measurement": "LOAEL", "setting": "rabbit [11]; [23]", "value": 150, "unit": "mg/kg/day"},
      {"measurement": "NEL", "setting": "rabbit [11]; [23]", "value": 25, "unit": "mg/kg/day"},
      {"measurement": "NOAEL", "setting": "rabbit [11]; [23]", "value": 50, "unit": "mg/kg/day"},
      {"measurement": "LEL", "setting": "rabbit [11]; [27]", "value": 25, "unit": "mg/kg/day"},
      {"measurement": "NEL", "setting": "rabbit [11]; [27]", "value": "< 25", "unit": "mg/kg/day"},
      {"measurement": "NOAEL", "setting": "rabbit [11]; group: maternal, reproductive / reproductive performance / resorptions / resorptions + systemic / in life observation / body weight / body weight gain + …", "value": 50, "unit": "mg/kg/day"},
      {"measurement": "LOAEL", "setting": "rabbit [11]; [28]", "value": 150, "unit": "mg/kg/day"},
      {"measurement": "LEL", "setting": "rat [12]; [23]", "value": 600, "unit": "mg/kg/day"},
      {"measurement": "LOAEL", "setting": "rat [12]; [23]", "value": 600, "unit": "mg/kg/day"},
      {"measurement": "NEL", "setting": "rat [12]; [23]", "value": 400, "unit": "mg/kg/day"},
      {"measurement": "NOAEL", "setting": "rat [12]; [23]", "value": 400, "unit": "mg/kg/day"},
      {"measurement": "LEL", "setting": "rat [12]; [28]", "value": 100, "unit": "mg/kg/day"},
      {"measurement": "NEL", "setting": "rat [12]; [28]", "value": "< 100", "unit": "mg/kg/day"},
      {"measurement": "LOAEL", "setting": "rat [12]; group: maternal, systemic / in life observation / body weight / body weight gain + systemic / in life observation / clinical signs / salivation", "value": 400, "unit": "mg/kg/day"},
      {"measurement": "NOAEL", "setting": "rat [12]; group: maternal, systemic / in life observation / body weight / body weight gain + systemic / in life observation / clinical signs / salivation + …", "value": 200, "unit": "mg/kg/day"}
    ]}
  ]
}
